Assay results as given in ChEMBL document CHEMBL4219148, “Discovery of a highly potent orally bioavailable imidazo-[1, 2-a]pyrazine Aurora inhibitor” (Bioorg Med Chem Lett, 2018).

What was measured:
Aurora kinase A = target: T1, Aurora kinase A (Homo sapiens, UniProt O14965); experiment: Inhibition of Aurora A (unknown origin) using Tamra-PKAtide as substrate by fluorescence polarization assay
T1 sequence (O14965 whole entry): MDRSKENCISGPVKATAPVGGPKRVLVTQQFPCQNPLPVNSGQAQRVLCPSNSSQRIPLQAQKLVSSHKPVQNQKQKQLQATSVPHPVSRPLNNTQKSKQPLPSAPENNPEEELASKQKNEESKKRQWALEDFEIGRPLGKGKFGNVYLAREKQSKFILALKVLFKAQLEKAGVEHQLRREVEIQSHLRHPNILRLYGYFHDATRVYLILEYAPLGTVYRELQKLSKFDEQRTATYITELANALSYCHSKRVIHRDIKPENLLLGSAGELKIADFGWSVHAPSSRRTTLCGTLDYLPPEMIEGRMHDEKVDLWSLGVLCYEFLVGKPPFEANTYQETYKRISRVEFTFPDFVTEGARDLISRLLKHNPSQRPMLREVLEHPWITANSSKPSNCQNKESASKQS

Aurora kinase B [1] = target: T2, Aurora kinase B (Homo sapiens, UniProt Q96GD4); experiment: Inhibition of Aurora B (unknown origin) using Tamra-PKAtide as substrate by fluorescence polarization assay
T2 sequence (Q96GD4 whole entry): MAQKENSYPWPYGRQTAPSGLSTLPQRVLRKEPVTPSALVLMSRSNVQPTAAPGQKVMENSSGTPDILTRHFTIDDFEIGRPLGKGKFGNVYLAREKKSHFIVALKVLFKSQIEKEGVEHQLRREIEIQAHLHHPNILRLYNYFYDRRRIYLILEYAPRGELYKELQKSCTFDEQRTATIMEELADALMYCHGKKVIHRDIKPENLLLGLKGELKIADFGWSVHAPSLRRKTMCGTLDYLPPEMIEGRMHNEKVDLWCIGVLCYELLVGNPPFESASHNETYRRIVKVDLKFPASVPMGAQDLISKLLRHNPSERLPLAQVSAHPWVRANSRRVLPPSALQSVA

Aurora kinase B [2] = target: T2, Aurora kinase B; experiment: Inhibition of Aurora B in human HCT116 cells assessed as reduction in phosphorylation of Histone H3 at Ser10 residue incubated for 1 hr by Hoechst 33342 dye-based immunofluorescence microscopic method; assay type: cell-based
[3] = AUC (0 to 6 hrs) in rat at 10 mg/kg, po; assay type: ADME, organism-based; parameters: time < 6 hr, dose 10 mg/kg, route oral; conditions: in vivo
[4] = AUC (0 to 24 hrs) in rat at 30 mg/kg, po; assay type: ADME, organism-based; parameters: time < 24 hr, dose 30 mg/kg, route oral; conditions: in vivo
[5] = Apparent permeability from apical to basolateral side in human intestinal Caco2 cells; assay type: ADME, cell-based; conditions: Caco-2

Structure (SMILES) | IC50 (Aurora kinase A) | IC50 (Aurora kinase B [1]) | EC50 (Aurora kinase B [2]) | AUC(0-t) at 6 h [3] | Papp A→B [5] | AUC(0-t) at 24 h [4]
Cc1cn2c(-c3cn[nH]c3)cnc2c(Nc2cc(Cc3nccs3)ns2)n1 | < 4 nM | < 13 nM | 170 nM | 3.9 µM·h |  | 
Cc1cn2c(-c3cn[nH]c3)cnc2c(Nc2cc(Cn3cccc3)ns2)n1 | < 4 nM | < 13 nM | 530 nM |  |  | 
Cc1cn2c(-c3cn[nH]c3)cnc2c(Nc2cc(Cc3cccc(CN4CCCCC4)n3)ns2)n1 | < 4 nM | < 13 nM | 289 nM |  |  | 
Cc1cn2c(-c3cn[nH]c3)cnc2c(Nc2cc(Cc3ccc(F)cn3)ns2)n1 | < 4 nM | < 13 nM | 486 nM | 5.5 µM·h |  | 
COc1cccc(Cc2cc(Nc3nc(C)cn4c(-c5cn[nH]c5)cnc34)sn2)n1 | < 4 nM | < 13 nM | 356 nM | 5.5 µM·h |  | 
Cc1cn2c(-c3cn[nH]c3)cnc2c(Nc2cc(C(NC(C)(C)C)c3ccccn3)ns2)n1 (racemic) | < 4 nM | < 13 nM | < 16 nM | 1.6 µM·h |  | 
Cc1cn2c(-c3cn[nH]c3)cnc2c(Nc2cc(C(NC(C)(C)C)c3ccccn3)ns2)n1 (single isomer, unassigned; (-)) | ≤ 4 nM | ≤ 13 nM | 50 nM |  |  | 39 µM·h
Cc1cccc(Cc2cc(Nc3nc(C)cn4c(-c5cn[nH]c5)cnc34)sn2)n1 | < 4 nM | < 13 nM | 88 nM | 7.7 µM·h |  | 
Cc1cn2c(-c3cn[nH]c3)cnc2c(Nc2cc(Cc3cccc(CO)n3)ns2)n1 | < 4 nM | < 13 nM | 559 nM |  |  | 
Cc1cn2c(-c3cn[nH]c3)cnc2c(Nc2cc(Cc3cccc(F)n3)ns2)n1 | < 4 nM | < 13 nM | 100 nM | 7.3 µM·h |  | 
Cc1cn2c(-c3cn[nH]c3)cnc2c(Nc2cc(Cn3cccc(C)c3=O)ns2)n1 | < 4 nM | < 13 nM | 487 nM |  |  | 
Cc1ccc(Cc2cc(Nc3nc(C)cn4c(-c5cn[nH]c5)cnc34)sn2)nc1 | < 4 nM | < 13 nM | 475 nM | 3.4 µM·h |  | 
Cc1cn2c(-c3cn[nH]c3)cnc2c(Nc2cc(Cc3cccc(C(=O)N4CCCCC4)n3)ns2)n1 | < 4 nM | < 13 nM | 245 nM | 0.1 µM·h |  | 

More lines, main results first:

IC50 (Aurora kinase A) | IC50 (Aurora kinase B [1]) | EC50 (Aurora kinase B [2]) | AUC(0-t) at 6 h [3] | Papp A→B [5] | Structure (SMILES) | AUC(0-t) at 24 h [4]
< 4 nM | < 13 nM | < 16 nM | 0.21 µM·h |  | Cc1cn2c(-c3cn[nH]c3)cnc2c(Nc2cc(C(c3ccccn3)N3CCCCC3)ns2)n1 (racemic) | 
< 4 nM | < 13 nM | > 1000 nM |  |  | Cc1cn2c(-c3cn[nH]c3)cnc2c(Nc2cc(Cc3cccnc3)ns2)n1 | 
< 4 nM | < 13 nM | 376 nM | 4.6 µM·h |  | Cc1ccnc(Cc2cc(Nc3nc(C)cn4c(-c5cn[nH]c5)cnc34)sn2)c1 | 
< 4 nM | < 13 nM | 83 nM | 0.45 µM·h |  | Cc1cn2c(-c3cn[nH]c3)cnc2c(Nc2cc(C(c3ccccn3)N3CCC(F)CC3)ns2)n1 (racemic) | 
< 4 nM | < 13 nM | < 16 nM | 0.02 µM·h |  | Cc1cn2c(-c3cn[nH]c3)cnc2c(Nc2cc(C(c3ccccn3)N3CCCC3)ns2)n1 (racemic) | 
< 4 nM | < 13 nM | < 16 nM | 0.67 µM·h |  | Cc1cn2c(-c3cn[nH]c3)cnc2c(Nc2cc(C(NC3CCCC3)c3ccccn3)ns2)n1 (racemic) | 
< 4 nM | < 13 nM | 370 nM |  |  | Cc1cn2c(-c3cn[nH]c3)cnc2c(Nc2cc(Cn3ccnc3)ns2)n1 | 
< 4 nM | < 13 nM | 250 nM | 1.6 µM·h |  | Cc1cn2c(-c3cn[nH]c3)cnc2c(Nc2cc(Cc3ncccc3C)ns2)n1 | 
< 4 nM | < 13 nM | > 1000 nM |  |  | Cc1cn2c(-c3cn[nH]c3)cnc2c(Nc2cc(Cc3ccncc3)ns2)n1 | 
< 4 nM | < 13 nM | 184 nM |  |  | Cc1cn2c(-c3cn[nH]c3)cnc2c(Nc2cc(Cn3cccn3)ns2)n1 | 
< 4 nM | < 13 nM | 208 nM | 0.15 µM·h | 4.3 ×10⁻⁶ cm/s | Cc1cn2c(-c3cn[nH]c3)cnc2c(Nc2cc(Cc3cnccn3)ns2)n1 | 
< 4 nM | < 13 nM | 182 nM | 1.4 µM·h |  | Cc1cn2c(-c3cn[nH]c3)cnc2c(Nc2cc(Cc3ncccc3F)ns2)n1 | 
< 4 nM | < 13 nM | 203 nM | 1.8 µM·h |  | Cc1cn2c(-c3cn[nH]c3)cnc2c(Nc2cc(Cc3ncccn3)ns2)n1 | 
